The record followed here is article PMC8066331, “Anticancer Activity of Triazolo-Thiadiazole Derivatives and Inhibition of AKT1 and AKT2 Activation” (Pharmaceutics, 2021).

Structures are written as SMILES.

For one assay, the system named is Akt1 phosphorylation. As to the kind of experiment: Detection of Akt1 phosphorylation by intracellular flow cytometry. The assay is classed as cell-based, human. To be noted: for decrease of Akt1 phospho-form: HT-29 cells; for phosphorylation of Akt1: GI50 and TGI concentrations. As for the experimental part: (§1) To investigate whether KA25 and KA39 triazolo[3,4-b]thiadiazole derivatives inhibit the phosphorylation of Akt1 and Akt2 isoforms, three colorectal cancer cell lines including HT-29, LoVo, and SW403 were intracellularly stained upon treatment with the two referred compounds. Firstly, cells were seeded into a 6-well plate at a density of 7 × 10^5 cells/well and maintained at 37 °C in a […]. After 24 h of cell growth, the culture medium was discarded and replaced with 2 mL of fresh medium. […] The required GI50 and TGI concentrations (μΜ) of the KA25 and KA39 derivatives in HT-29 and LoVo cells have been determined in previous studies. To estimate the TGI concentration (μΜ) of the KA25 compound in SW403 cells, further MTT assays were carried out as previously described. Following drug exposure at the mentioned treatment conditions, the cells were collected after being washed with ice-cold PBS (pH = 7.4) and detached enzymatically with standard trypsinization. Two centrifugations were followed at 1500 rpm for 5 min, including two washing steps with 2 mL of cell staining buffer (BioLegend, San Diego, CA, USA). Cell pellets were fixed with 500 μL of pre-warmed fixation buffer (BioLegend, San Diego, CA, USA) and incubated at 37 °C for 15 min. Afterwards, one centrifugation was carried out at 1000 rpm for 5 min, followed by supernatant discard and resuspension of cell pellet through vortex. Then, the cells were washed with 2 mL of cell staining buffer twice, including two centrifugations at 1000 rpm for 5 min at room temperature. After the cell pellet was resuspended with gentle pipetting, cells were permeabilized by adding 1000 μL of pre-chilled True-Phos Permeabilization buffer (BioLegend, San Diego, CA, USA) while vortexing. Following overnight incubation at −20 °C, the cells were centrifuged at 2000 rpm for 5 min and the supernatant was discarded. After the cell pellet was resuspended by vortexing, two centrifugations were performed at 2000 rpm for 5 min including two washes with 2 mL of cell staining buffer. The cell pellet was resuspended with 200 μL of cell staining buffer, and equal volumes were transferred into the appropriate tubes. To detect total Akt1 and Akt2, 2 μL of purified anti-Akt1 and anti-Akt2 (BioLegend, San Diego, CA, USA) was added, respectively. Additionally, 2 μL of purified anti-Akt phospho(Ser473) (BioLegend, San Diego, CA, USA) was added for the detection of either phosphorylated AKT1 or AKT2. Furthermore, a cocktail of isotype controls (5 μL of purified mouse IgG1, 5 μL of purified mouse IgG2b, and 1 μL of purified rabbit polyclonal isotype control antibody) was used to differentiate nonspecific background signals from specific antibody signals. The cells were incubated for 30 min at room temperature in the dark and then stained with 5 μL of phycoerythrin (PE) donkey anti-rabbit IgG and 2 μL of Alexa Fluor 488 Goat anti mouse IgG (BioLegend, San Diego, CA, USA). After 15 min of incubation in the dark, the cells were resuspended with 1000 μL of cell staining buffer and analyzed in the flow cytometer (CyFlow®, SL, Partec, GmbH, Muenster, Germany). Flow cytometric analysis was carried out in triplicate and performed by Partec Flomax software.
(§2) The inhibitory impact of the two triazolo[3,4-b]thiadiazole derivatives KA25 and KA39 on the phosphorylation of either Akt1 (p-Akt1) or Akt2 (p-Akt2) was determined by the following formulas: p-Akt1(%) or p-Akt2 (%) = [(mean-xtreated − isotypetreated)]/[(mean-xuntreated − isotypeuntreated)] × 100, where the isotype value is subtracted from the mean-x value of the corresponding condition, including treated and untreated cells. As the formulas indicate, the difference in value of treated cells is divided by the difference in value of untreated cells (control group) to estimate the extent of inhibition. […]

In the next assay the test system is Akt2 phosphorylation. As to the kind of experiment: Detection of Akt2 phosphorylation by intracellular flow cytometry. In kind it is cell-based, human. To be noted: for decrease of Akt2 phospho-form: HT-29 cells; for phosphorylation of Akt2: GI50 and TGI concentrations. As for the experimental part:
as §1, §2
(In flow cytometry, cells or beads pass a laser one at a time.)

The mark [1] stands for this setting: GI50 concentration (KA39 11.5 μΜ, KA25 1 μΜ), 3 h.
[2] abbreviates: GI50 concentration (KA39 11.5 μΜ, KA25 1 μΜ), 24 h.
Where [3] appears, read: TGI concentration (KA39 15.9 μΜ, KA25 120 μΜ), 3 h.
Where [4] appears, read: TGI concentration (KA39 15.9 μΜ, KA25 120 μΜ), 24 h.
[5] abbreviates: LoVo cells, 3 and 24 h (Figure S47).
[6] abbreviates: SW403 cells, 3 and 24 h (Figure S48).

Regarding `COc1cc(Cc2nnc3sc(-c4cc([N+](=O)[O-])ccc4[N+](=O)[O-])nn23)c(S(=O)(=O)N(C)C)cc1OC` [KA39], the “decrease of Akt1 phospho-form” value in the assay on Akt1 phosphorylation (setting [1]) was determined as 73.66%; with Akt1 phosphorylation (setting [2]) it was 75.71%; with Akt1 phosphorylation (setting [3]) it was 72.9%; in the assay with Akt1 phosphorylation (setting [4]) it was 88.5%. The “phosphorylation of Akt1” value in the assay with Akt1 phosphorylation (setting [5]) and in the assay on Akt1 phosphorylation (setting [6]) was “significantly inhibited” throughout. For the same compound, the “decrease of Akt2 phospho-form” value in the assay on Akt2 phosphorylation (setting [1]) turned out to be 60.76%; in the assay on Akt2 phosphorylation (setting [2]), 83.55%; in the assay on Akt2 phosphorylation (setting [3]), 58.87%; in the assay on Akt2 phosphorylation (setting [4]), 86%. Further, the “phosphorylation of Akt2” value in the assay with Akt2 phosphorylation (setting [5]) and in the assay with Akt2 phosphorylation (setting [6]) was “significantly inhibited” throughout.
Regarding `COc1cc(Cc2nnc3sc(C=Cc4ccc(F)cc4)nn23)c(S(=O)(=O)N(C)C)cc1OC` [KA25], the “decrease of Akt1 phospho-form” value is 83.38% in the assay with Akt1 phosphorylation (setting [1]), 79.8% in the assay on Akt1 phosphorylation (setting [2]), 86.45% with Akt1 phosphorylation (setting [3]) and 87.73% in the assay with Akt1 phosphorylation (setting [4]). Moreover, the “phosphorylation of Akt1” value in the assay on Akt1 phosphorylation (setting [5]) and in the assay on Akt1 phosphorylation (setting [6]) was “significantly inhibited” in each case. Moreover, the “decrease of Akt2 phospho-form” value is 73.74% with Akt2 phosphorylation (setting [1]), 76.9% in the assay with Akt2 phosphorylation (setting [2]), 82.6% in the assay with Akt2 phosphorylation (setting [3]) and 86.4% in the assay on Akt2 phosphorylation (setting [4]). The “phosphorylation of Akt2” value with Akt2 phosphorylation (setting [5]) and with Akt2 phosphorylation (setting [6]) was “significantly inhibited” each time.
